# Key:
# [1] = system: MBP-specific T lymphocyte cell lines migrating across rat brain endothelial cell monolayer; test: Inhibition of T-lymphocyte migration across rat brain endothelial cell layer (Transwell, 51Cr-labeled cells); format: cell-based, Lewis rats; settings: 6 hours
# Method: Preparation of Brain Endothelial Cells (ECs)
# Vascular ECs were isolated from rat brain capillaries of 6 to 8 week old Lewis rats according to the method of Risau, W et al., 1990, J. Cell Biol. 110:1757-1766 (which is incorporated herein by reference). Colonies of ECs were purified from astroglial cells and pericytes using anti-Thy1.1-antibody and complement-mediated lysis to remove unwanted Thy1.1+ cells.
# The EC colonies were grown, using conventional methods, in Dulbecco's Modified Eagle's Medium (DMEM)-high glucose, supplemented, with 20% fetal calf serum (FCS), glutamine, pyruvate, nonessential amino acids, HEPES buffer and antibiotics (kanamycin, amphotericin), and heparin (all from GIBCO). Cultures were supplemented with 150 μg/ml “endothelial growth supplement” from Collaborative Biomedical Products. Upon reaching confluence, EC cultures were washed with 0.2% EDTA in phosphate buffered saline (PBS), trypsinized (Trypsin-EDTA, 0.1% final concentration), washed and re-treated with anti-Thy1.1 antibody for 40 min, washed and incubated with complement sufficient to lyse all Thy1.1+ cells (Behringwerke, AG, Marburg, Germany) at room temperature.
# ECs were then plated on Matrigel®-coated 6.5 mm Transwells, […] (Corning Costar Corporation, Cambridge, Mass.). Presence of ECs and confluence of the monolayer were checked by measuring the electrical resistance (World Precision Instruments, New Haven, U.S.A., model EVOM-G) and by staining with FITC-labeled phalloidin (Sigma).
# Myelin Basic Protein (MBP)-Specific T Cell Lines
# To study the effect of agents of the present invention on T lymphocyte migration, MBP-specific T lymphocyte cell lines were generated according to the method of Ben-Nun et al., Europ. J. Immunol. 11:195-199 (1981); incorporated herein by reference) starting with lymphocytes from the LNs of Lewis rats that had been immunized with MBP in complete Freund's adjuvant (CFA). These cells were used for migration studies during the first 4 days of their propagation in IL-2-containing medium, following MBP restimulation in the presence of antigen-presenting cells (irradiated spleen or thymus cells from normal Lewis rats).
# These stimulated T lymphocytes were radiolabeled with ^51Cr (Na^51Cr04, 37 MBq/ml, Amersham, UK) for 30 minutes at 37° C. with occasional agitation, they were then washed three times with DMEM and placed into the upper chamber of the Transwells at 5×10^5 cells in 100 μl of “migration medium.” Test and control substance were included in the upper wells at final concentrations of 0.1, 1 and 10 mM. Cell migration was assessed visually by light microscopy to gauge progress of the experiment. The experiment was terminated after 6 hours, whereupon the undersurface of the membrane filters were rinsed twice with 100 μl of ice-cold PBS-0.2% EDTA and combined with the medium of the lower chamber of the well. The combined material was counted for radioactivity in a gamma counter (Packard Auto-Gamma 5650 (Downer's Grove Ill., USA) gamma counter. Each “treatment” group was run in triplicate (test agent, control agent (glucose 6-phosphate) and no treatment).
# Inhibition values are in comparison with the negative control.
# [2] = Tested for pharmaceutical effectiveness (test not specified)
# Method: In a similar manner to the foregoing procedure and using the appropriate reagents, the following compounds were prepared.
# [3] = system: 51Cr-labeled T lymphocyte migration into the spleen; test: Inhibition of lymphocyte migration into lymphoid tissue (spleen) in vivo; design: species or system Balb/c mice; settings: 5 mg per mouse iv with labeled cells; spleens removed 1.5 hours after injection; vs negative controls
# Method: Lymphocytes were obtained from spleens of 6-8 week old female specific pathogen-free Balb/c mice (19-21 g). Single cell suspensions prepared by conventional means (pushing through a stainless steel screen). Red blood cells were lysed by treating with a solution of bicarbonate buffered ammonium chloride-EDTA (pH 7.3) and the preparation strained through a Falcon 2350 cell strainer. All cell preparative steps were performed on ice. Cell were suspended in a conventional lymphocyte culture medium (DMEM plus glucose, folic acid, L-asparagine, sodium bicarbonate, L-glutamine, sodium pyruvate, HEPES, 2-mercaptoethanol, penicillin, streptomycin, neomycin, and 2% FCS).
# B lymphocytes were depleted by suspending the cells in purified rat anti-mouse CD45/B220 antibody (RA3-6B2 clone; PharMingen, USA) at a concentration of 4×10^7 cells/ml and incubated on ice for 20 minutes. An equal volume of culture medium (as above) was added and the cells centrifuged (200×g) and resuspended at a concentration of 10^7 cells/ml in BioMag goat ant-rat IgG (H&L) (“GARIG”) conjugated to magnetic beads (Bio Mag; Perseptive Diagnostics, Polysciences, Inc., USA). Following a 20 minute incubation on ice, with agitation every 5 minutes, cells binding to the GARIG/anti-CD45/B220 antibody complex were removed using magnetic separation (Dynal MPC-6, Dynal, USA). This procedure was repeated 4 times, resulting in a cell population containing approximately 80-90% T lymphocytes (determined by FACS analysis).
# The cells were then washed in Hanks balanced salt solution (HBSS), resuspended in 5 ml of HBSS, and radiolabeled with ^51Cr for 30 minutes at 37° C. (as described above). The labeled cells were washed in PBS, centrifuged (200×g), and a portion were resuspended at a concentration of 3×10^7 cells/ml in either PBS (negative control) or PBS containing phenyl mannoside 6-phosphate (25 mg/ml in PBS; positive control) or PBS containing the test compound (25 mg/ml), and stored on ice. Cell viability was confirmed throughout the procedures by trypan blue exclusion. Balb/c mice were injected intravenously (iv) into the lateral tail vein with 0.2 ml containing 6×10^6 labeled lymphocytes and 0.2 ml of either PBS (negative control), 5 mg positive control or 5 mg test compound. All groups of mice were weight matched (±0.5 g).
# Spleens from recipient mice were removed 1.5 hours after injection, and the cell-associated radioactivity was determined using a gamma counter (as above). Results of inhibition of lymphocyte migration into the spleen were expressed as a percentage reduction in the CPM of the spleens from treated animals compared with negative controls.
# The phosphono-mannoside compounds of the present invention and their relative inhibition of lymphocyte migration in vivo (compared to negative controls) are presented in Table 2.
# [4] = 10 mM in upper well, compared with negative control
Compound,"% inhibition (±SEM) of T cell migration [1, 4] [%]",pharmaceutical effectiveness as defined herein [2],% Inhibition of lymphocyte migration into spleens [3] [%],"inhibition at 10000 µM ([1]; Rattus norvegicus, T-cell, 10 mM in upper well, compared with negative control, read-out: % inhibition (±SEM) of T cell migration) [%]",migration value compared with no treatment ([1]; control agent)
"1-(2-methyl,4-trifluoromethyl)-6-phosphonomannoside",88 ± 3,pharmaceutically effective,87.3,,
"1-(2-methyl,4-fluorophenyl)-6-phosphonomannoside",53 ± 2,,68.0,,
"1-(2,4,6-trimethylphenyl)-6-phosphono-manoside",80 ± 4,,85.5,,
"O=P(O)(O)OC[C@H]1OC(Oc2ccccc2)[C@@H](O)[C@@H](O)[C@@H]1O (stereo partly drawn) [positive control compound, phenyl mannoside 6-phosphate, reference compound]",,,70.5,,
"1-(2-methyl,4-chlorophenyl)-6-phosphono-mannoside",65 ± 4,,45.0,,
"O=C[C@H](O)[C@@H](O)[C@H](O)[C@H](O)COP(=O)(O)O [glucose-6-phosphate, reference compound]",,,,0,not statistically different from no treatment

# Source: US7648966B2, “Mannose-6-phosphonate compounds for the treatment of inflammatory diseases” (Pharmaxis Pty Limited, priority 2003, dated 2010)
